Measurements taken from PMC4472782, “Antibacterial Characterization of Novel Synthetic Thiazole Compounds against Methicillin-Resistant Staphylococcus pseudintermedius” (PLoS ONE, 2015).
In brackets after ≈: the same amount, converted by molar mass. Counter-ions that a name gives are not always drawn. Like-named read-outs stand apart in the source and are kept apart here.

Legend:
MRSP SP3 [1] = assay: Cell membrane disruption (260/280 nm cell leakage) analysis; assay type: cell-based, Staphylococcus pseudintermedius; details: for absorbance (260 and 280 nm leakage) compared with untreated cells, statistical result: MRSP SP3, 30 minutes, one-way ANOVA, Tukey, P ≤ 0.05
Experimental: In order to investigate the antimicrobial effect of the thiazole compounds on the integrity of the bacterial cell membrane, the release of 260 and 280 nm absorbing components was determined spectrophotometrically. […] Untreated MRSP SP3 cells or cells treated with vancomycin (inhibits cell wall synthesis in bacterial cells) served as negative controls. For the release of 260 and 280 nm absorbing material, the bacterial suspension (control) was treated with lysostaphin (in 50 mM Tris-HCl, pH 8.00) for 30 minutes. Lysostaphin was used as a positive control due to its mode of action being the disruption of the cross-linking of the pentaglycin bridges in the cell wall of staphylococci bacteria. The absorbance of cell supernatant at 260 and 280 nm was determined using a spectrophotometer (Jenway 6305). The average OD260 and OD280 values of duplicates of each treatment option were calculated and expressed as the proportion of average OD260 (or OD280) for each treatment option compared to the average OD260 (or OD280) for the positive control (lysostaphin).
(§1) All statistical analyses were performed with GraphPad Prism 6.0 (GraphPad Software, La Jolla, CA). Data generated from cytotoxicity analysis of the thiazole compounds against J774.A1 cells and the 260 and 280 nm cell leakage analysis were analyzed using one-way ANOVA, with post hoc Tukey's multiple comparisons test (P < 0.05).

MRSP SP3 [2] = assay: Time-kill analysis against MRSP; assay type: cell-based, Staphylococcus pseudintermedius; details: 4 × MIC; for time required to completely eliminate MRSP: MRSP SP3, 24 hour incubation at 37°C
Experimental: MRSP SP3 cells in late logarithmic growth phase were diluted to ~1 × 10^6 CFU/mL and exposed to concentrations equivalent to 4 × MIC (in triplicate) of thiazole compounds 1–6 and rifampicin in MHB. Samples (20 μL) were collected after 0, 2, 4, 6, 8, 10, 12, and 24 hours of incubation at 37°C and subsequently serially diluted in PBS. Bacteria were then transferred to TSA plates and incubated at 37°C for 20–24 hours before viable CFU/mL values were determined.

[3] = system: methicillin-sensitive Staphylococcus pseudintermedius; assay: MIC by broth microdilution against MSSP clinical isolates; assay type: cell-based; details: for MIC50: lowest concentration inhibiting growth in 50% of isolates; for MIC: read-out: MIC Range
Experimental: (§2) Fifteen isolates of S. pseudintermedius (nine MSSP and six MRSP), identified at the Indiana Animal Disease Diagnostic Laboratory from specimens collected from dogs admitted to the small animal teaching hospital at Purdue University, were included in the study. The specimens were not collected specifically for this research study but were obtained from patients admitted to the hospital for treatment. Clinical specimens were inoculated onto 5% sheep blood agar and incubated at 35°C for 18–24 hours. Standard methods including examination of colony morphology and hemolysis and biochemical tests such as tube coagulase, Voges-Proskauer (VP) and fermentation tests for maltose, trehalose and lactose, were used in addition to matrix-assisted laser desorption ionization time of flight mass spectrometry to identify isolates. Antimicrobial susceptibility was determined by broth microdilution using the SensiTitre (Thermofisher Scientific).
(§3) Bacteria were prepared in phosphate-buffered saline (PBS) until a McFarland standard of 0.5 was achieved. The solution was subsequently diluted 1:300 in Mueller-Hinton broth (MHB) to reach a starting inoculum of 1 × 10^5 colony-forming units (CFU/mL). Bacteria were then transferred to a 96-well microtiter plate. Thiazole compounds and antibiotics were added (in triplicate) to wells in the first row of the microtiter plate and then serially diluted along the vertical axis. […] The MIC was categorized as the concentration where there was no visible growth of bacteria observed.

[4] = system: methicillin-resistant Staphylococcus pseudintermedius; assay: MBC determination against MRSP clinical isolates; assay type: cell-based; details: for MBC: Staphylococcus pseudintermedius, read-out: MBC50
Experimental: (§4) The MBC was determined by plating 5 μL from wells on the 96-well microtiter plate (where the MIC was determined) where no growth was observed onto Tryptic soy agar (TSA) plates. […] The MBC was categorized as the concentration where ≥99% reduction in bacterial cell count was observed.

MRSP SP3 [5] = assay: Post-antibiotic effect against MRSP; assay type: cell-based, Staphylococcus pseudintermedius; details: 4 × MIC for one hour
Experimental: A tube containing untreated bacterial cells served as a control. Afterward, the compound/antibiotic was washed out by diluting bacteria 1:1000 in MHB. Counts of CFU for all cultures were obtained after washing. Aliquots (100 μL) of bacteria were removed every hour (for 10 hours), serially diluted in PBS, and plated on TSA plates. TSA plates were incubated for 20 hours at 37°C before CFU values were determined.

[6] = system: methicillin-resistant Staphylococcus pseudintermedius; assay: MIC by broth microdilution against MRSP clinical isolates; assay type: cell-based; details: for MIC50: Staphylococcus pseudintermedius
Experimental: as §2, §3

[7] = system: methicillin-sensitive Staphylococcus pseudintermedius; assay: MBC determination against MSSP clinical isolates; assay type: cell-based; details: nine MSSP isolates; for MBC: Staphylococcus pseudintermedius, lowest concentration that killed 50% of isolates, read-out: MBC50
Experimental: as §4

[8] = system: murine macrophage cell line (J774.A1); assay: In vitro cytotoxicity analysis (MTS assay); assay type: cell-based; details: 10 μg/mL, J774.A1, two hours
Experimental: Compounds were assayed at concentrations of 5 μg/mL, 10 μg/mL, 20 μg/mL, and 40 μg/mL against a murine macrophage cell line (J774.A1) (ATCC TIB-67, American Type Culture Collection (ATCC), Manassas, VA, USA) to determine the potential toxic effect in vitro. Cells were cultured in Dulbeco’s modified Eagle’s medium (Sigma-Aldrich, St. Louis, MO, USA) with 10% fetal bovine serum (USA Scientific, Inc.) at 37°C with 5% CO2. Controls received DMSO alone at a concentration equal to that in drug-treated cell samples. The cells were incubated with the compounds in a 96-well plate at 37°C and 5.0% CO2 for two hours prior to addition of the assay reagent MTS 3-(4,5-dimethylthiazol-2-yl)-5-(3-carboxymethoxyphenyl)-2-(4-sulfophenyl)-2H-tetrazolium) (Promega, Madison, WI, USA). Absorbance readings were taken using a kinetic ELISA microplate reader (Molecular Devices, Sunnyvale, CA, USA). The quantity of viable cells after treatment with each compound was expressed as a percentage of the control, DMSO.
as §1

MRSP (SP3) = assay: Multi-step resistance selection; assay type: cell-based, Staphylococcus pseudintermedius; details: for shift in the MIC over ten passages: MRSP SP3, ten serial passages; for MIC: Staphylococcus pseudintermedius
Experimental: To assess the ability of MRSP to develop resistance to the thiazole compounds, a multi-step resistance selection experiment was performed, as described elsewhere. The broth microdilution method for MIC determination against a clinical isolate of MRSP (SP3) was repeated for ten passages over a period of ten days. The initial inoculum was prepared to a McFarland standard of 0.5. The solution was subsequently diluted 1:300 in MHB to reach a starting inoculum of 1 × 10^5 CFU/mL. For each subsequent passage, the inoculum for the MIC determination was adjusted to a final density of approximately 5 × 10^5 CFU/mL using the contents of a well containing a subinhibitory concentration of the compound (where bacterial growth was observed from the previous passage). Bacteria were then transferred to a new 96-well microtiter plate.

MRSP SP3 [9] = assay: Checkerboard assay of thiazole compounds with oxacillin; assay type: cell-based, Staphylococcus pseudintermedius; details: for ƩFIC: combination with oxacillin, ≤ 0.5 synergistic, > 0.5 to ≤ 4.0 indifference, > 4 antagonistic; for relationship with oxacillin: checkerboard assay
Experimental: The relationship between the thiazole compounds and oxacillin was assessed via a standard checkerboard assay. Bacteria (MRSP SP3) equivalent to a McFarland standard of 0.5 were prepared in PBS. The bacteria were next diluted in MHB to achieve a starting cell density of 1 × 10^5 CFU/mL. MHB was transferred to all wells of a 96-well microtiter plate. […] Oxacillin was serially diluted along the abscissa of the microtiter plate while the thiazole compound was serially diluted along the ordinate. The plate was incubated for 22–24 hours at 37°C. The MIC of the test compound in combination with oxacillin was determined as the lowest concentration of each compound/antibiotic where no visible growth of bacteria was observed. The fractional inhibitory concentration index (ƩFIC) was calculated for each combination as described previously. A synergistic relationship was classified as an FIC index less than or equal to 0.5. […]

[10] = six MRSP isolates, triplicate, read-out: MIC50

| Molecule | absorbance (260 and 280 nm leakage) compared with untreated cells, statistical result (MRSP SP3 [1]) | MIC50 ([3]; nine MSSP isolates, triplicate) | MIC ([3]; nine MSSP isolates, triplicate) | MBC ([4]; six MRSP isolates) | MBC Range ([4]; six MRSP isolates) | Post-antibiotic Effect (MRSP SP3 [5]) | MIC50 [6, 10] | MIC Range ([6]; six MRSP isolates, triplicate) | MBC [7] | MBC Range [7] | time required to completely eliminate MRSP (MRSP SP3 [2]) | toxicity to murine macrophage cells (MTS assay) [8] | shift in the MIC over ten passages (MRSP (SP3)) | MIC (MRSP (SP3); read-out: initial MIC) | ƩFIC (MRSP SP3 [9]) | other results |
| --- | --- | --- | --- | --- | --- | --- | --- | --- | --- | --- | --- | --- | --- | --- | --- | --- |
| CN[C@H](CC(C)C)C(=O)N[C@H]1C(=O)N[C@@H](CC(N)=O)C(=O)N[C@H]2C(=O)N[C@H]3C(=O)N[C@H](C(=O)N[C@H](C(=O)O)c4cc(O)cc(O)c4-c4cc3ccc4O)[C@H](O)c3ccc(c(Cl)c3)Oc3cc2cc(c3O[C@@H]2O[C@H](CO)[C@@H](O)[C@H](O)[C@H]2O[C@H]2C[C@](C)(N)[C@H](O)[C@H](C)O2)Oc2ccc(cc2Cl)[C@H]1O [vancomycin, vancomycin hydrochloride, reference compound] | no statistical difference |  |  |  |  |  |  |  |  |  |  |  |  |  |  |  |
| CO[C@H]1/C=C/O[C@@]2(C)Oc3c(C)c(O)c4c(O)c(c(/C=N/N5CCN(C)CC5)c(O)c4c3C2=O)NC(=O)/C(C)=C\C=C\[C@H](C)[C@H](O)[C@@H](C)[C@@H](O)[C@@H](C)[C@H](OC(C)=O)[C@@H]1C [Rifampicin, rifampicin, reference compound] |  | < 0.41 µg/mL | < 0.41 µg/mL | < 0.41 µg/mL | <0.41 µg/mL | >9 h | < 0.41 µg/mL | <0.41 µg/mL | < 0.41 µg/mL | <0.41 µg/mL |  |  |  |  |  | time-kill behaviour (in words) (MRSP SP3 [2]; MRSP SP3): slow bactericidal activity against MRSP SP3 within the first eight hours of the assay before rapid bacterial re-growth; Post-antibiotic Effect (MRSP SP3 [5]; listed as rifampicin): > 9 h |
| CCC[C@@H]1C[C@@H](C(=O)N[C@@H]([C@H]2O[C@H](SC)[C@H](O)[C@@H](O)[C@H]2O)[C@H](C)Cl)N(C)C1 [Clindamycin, Clindamycin hydrochloride monohydrate, reference compound] |  | 0.48 µg/mL | 0.24 to 61.4 µg/mL | 30.7 µg/mL |  | 2 h | 0.48 µg/mL |  | 0.48 µg/mL |  |  |  |  |  |  | Post-antibiotic Effect (MRSP SP3 [5]; listed as clindamycin): two hours |
| lysostaphin: positive control; disrupts cross-linking of the pentaglycin bridges in the cell wall of staphylococci [reference compound] | significant difference |  |  |  |  |  |  |  |  |  |  |  |  |  |  |  |
| C/C(=N\NC(=N)N)c1sc(-c2ccc(-c3ccc(F)cc3)cc2)nc1C [Compound 4] |  | 0.73 µg/mL (≈ 1.99 µM) | 0.18 to 2.94 µg/mL (≈ 0.49 to 8 µM) |  |  | >9 h |  | 0.37 to 1.47 µg/mL | 1.1 µg/mL (≈ 2.99 µM) | 0.18 to 2.94 µg/mL | 12 h | not toxic | two-fold increase | 1.47 µg/mL (≈ 4 µM) | 0.63 | MBC [4]: 1.47 µg/mL (≈ 4 µM); MIC50 [6]: 1.47 µg/mL (≈ 4 µM) |
| C/C(=N\NC(=N)N)c1sc(-c2ccc(-c3ccc(C(F)(F)F)cc3)cc2)nc1C [Compound 5] |  | 0.42 µg/mL (≈ 1.01 µM) |  | 0.42 µg/mL (≈ 1.01 µM) | 0.21 to 3.34 µg/mL | 8 h | 0.42 µg/mL (≈ 1.01 µM) | 0.21 to 1.67 µg/mL | 0.42 µg/mL (≈ 1.01 µM) | 0.21 to 6.67 µg/mL | eight hours | not toxic | two-fold increase | 1.67 µg/mL (≈ 4 µM) | 0.38 | MIC [3]: 0.21 to 1.67 µg/mL (≈ 0.503 to 4 µM); MIC (MRSP (SP3); read-out: MIC after the second serial passage (stable until the seventh passage)): 3.34 µg/mL (≈ 8 µM); MIC (MRSP (SP3); read-out: MIC at the seventh passage): 6.68 µg/mL (≈ 16 µM); relationship with oxacillin (MRSP SP3 [9]): synergistic |
| C/C(=N\NC(=N)N)c1sc(-c2ccc(-c3ccccc3)cc2)nc1C [Compound 2] | no statistical difference | 0.3 µg/mL (≈ 0.858 µM) | 0.15 to 0.61 µg/mL (≈ 0.429 to 1.75 µM) | 0.61 µg/mL (≈ 1.75 µM) | 0.30 to 0.81 µg/mL | 8 h | 0.46 µg/mL (≈ 1.32 µM) | 0.15 to 0.61 µg/mL | 0.61 µg/mL (≈ 1.75 µM) | 0.15 to 2.42 µg/mL | eight hours | toxic |  |  | 0.56 | intracellular content (at 260 nm) released compared to cells treated with lysostaphin (MRSP SP3 [1]; 4 × MIC, 30 minutes, MRSP SP3): Less than 20% |
| C/C(=N\NC(=N)N)c1sc(-c2ccc(-c3cccc4ccccc34)cc2)nc1C [Compound 6] |  | 0.8 µg/mL (≈ 2 µM) | 0.2 to 1.6 µg/mL (≈ 0.501 to 4 µM) | 0.8 µg/mL (≈ 2 µM) | 0.20 to 1.60 µg/mL | >9 h | 0.4 µg/mL (≈ 1 µM) | 0.20 to 1.60 µg/mL | 1.06 µg/mL (≈ 2.65 µM) | 0.20 to 3.19 µg/mL | within two hours | toxic | four-fold increase | 1.6 µg/mL (≈ 4 µM) | 0.38 | relationship with oxacillin (MRSP SP3 [9]): synergistic |
